Results: patent publication US20220249484A1, “METHODS FOR PREDICTING RESPONSIVENESS OF CANCER TO FERROPTOSIS-INDUCING THERAPIES” (Memorial Sloan Kettering Cancer Center, priority 2019, published 2022)

Tests used:
[1] = system: HCT116 cells; experiment: Cell death inhibitors in sparse HCT116 cells under cystine starvation or RSL3; assay type: cell-based, human; details: 5×10^4 cells/well; for inhibition of RSL3-induced cell death: 5 μM RSL3 24 h, with cell death inhibitors; for inhibition of cystine starvation-induced cell death: cystine-free media 30 h, Fer-1 1 μM, DFO 50 μg/mL, Z-VAD-FMK 20 μM, GSK'872 10 μM
Method: (§1) Measurement of cell death, cell viability and lipid peroxidation. Cell death was analyzed by propidium iodide (Invitrogen, Waltham, Mass., USA) or SYTOX Green (Invitrogen) staining followed by microscopy or flow cytometry. For 3D spheroids, cell viability was determined using the CellTiter-Glo® 3D Cell Viability Assay (Promega, Madison, Wis., USA) according to the manufacturer's instructions. Viability was calculated by normalizing ATP levels to spheroids treated with normal full media. To analyze lipid peroxidation, cells were stained with 5 μM BODIPY-C11 (Invitrogen) for 30 minutes at 37° C. followed by flow cytometric analysis.
To confirm that sparse HCT116 cells were dying from ferroptosis but not another cell death modality, various cell death inhibitors were tested: ferrostatin-1 (Fer-1) and DFO, which inhibit ferroptosis, Z-VAD-FMK, a pan-caspase inhibitor, and GSK'872, a selective RIPK3 inhibitor that blocks necroptosis. HCT116 cells were seeded at a density of 5×10^4 cells/well and grown for 24 hours. Cells were washed in PBS and cultured in cystine-free media with the indicated treatments for 30 h. Fer-1: Ferrostatin-1, 1 μM; DFO: iron chelator, 50 μg/mL; Z-VAD-FMK: pan-caspase inhibitor, 20 μM; GSK'872: RIPK3 inhibitor, 10 μM. HCT116 cells were seeded at a density of 5×10^4 cells/well and grown for 24 hours, then treated with 5 μM RSL3 and the indicated cell death inhibitors for 24 hours before measuring cell death. These experiments confirmed that cells underwent ferroptosis, instead of other modes of cell death, under these conditions (FIGS. 6C-6D). Similar cell density-dependent ferroptosis was previously observed by Seiler et al., Cell Metab. 8: 237-248 (2008) and Schneider et al., Neoplasia 12:254-263 (2010). In Seiler et al., mouse embryonic fibroblasts (MEFs) harboring two floxed GPX4 alleles survived and grew when seeded at high density, but upon passage at lower density they died rapidly. In Schneider et al., GPX4-deficient MEFs formed 3D tumor spheroids as well as wild-type MEFs by an unknown mechanism.

[2] = system: MSTO-211H cells; experiment: Ferroptosis in confluent MSTO-211H cells (shMerlin, shNcad); assay type: cell-based, human
Method: as §1
To confirm the ferroptosis-regulating role of Merlin in mesothelioma cells, the effect of Merlin knockdown on ferroptosis sensitivity was assessed. MSTO-211H cells were infected with lentiviruses expressing shMerlin. RNAi knockdown efficiency was confirmed by Western blot (FIG. 3F). Then, shNT or shMerlin MSTO-211H cells were cultured to high confluence, at which point they were treated with media containing or lacking cystine, with or without Fer-1 for 24 h. Cell death was measured by SYTOX Green staining followed by flow cytometry (FIG. 3G). To measure lipid reactive species, shNT or shMerlin MSTO-211H cells were treated for 18 h, at which point they were stained with 2 μM C11-BODIPY for lipid ROS measurement (FIG. 311). Confluent MSTO-211H cells expressing shNT or shMerlin were also treated with 1 μM RSL3 with or without […] Fer-1. Cell death (left, 24 h after treatment) and lipid ROS production (right, 16 h) were measured (FIG. 13B).
Therefore, the cell density dependence of ferroptosis is not limited to epithelial cells expressing Ecad. […] To assess the expression of N-cadherin in MSTO-211H mesothelioma cells, the cells were cultivated at different cell densities, and the levels of Ncad, p-YAP and total YAP were analyzed by Western blot. […] Therefore, the potential role of Ncad in ferroptosis was tested. MSTO-211H cells were infected with lentiviruses expressing Ncad shRNA (shNcad) and selected with puromycin.

[3] = system: tumor spheroids of HCT116 cells; experiment: Erastin-induced cell death in HCT116 tumor spheroids; assay type: cell-based, human; details: 15 μM erastin with 2 μM Fer-1, 30 h
Method: Generation of three-dimensional spheroids. Spheroids were generated by plating tumor cells at 10^3/well into U-bottom Ultra Low Adherence (ULA) 96-well plates (Corning, Tewksbury, Mass., USA). Optimal three-dimensional structures were achieved by centrifugation at 600 g for 5 min followed by addition of 2.5% Matrigel (Corning). Plates were incubated for 72 h at 37° C., 5% CO2, 95% humidity for formation of a single spheroid of cells. Spheroids were then treated with erastin in fresh medium containing Matrigel for the indicated time.
Measurement of cell death, cell viability and lipid peroxidation. Cell death was analyzed by propidium iodide (Invitrogen, Waltham, Mass., USA) or SYTOX Green (Invitrogen) staining followed by microscopy or flow cytometry. For 3D spheroids, cell viability was determined using the CellTiter-Glo® 3D Cell Viability Assay (Promega, Madison, Wis., USA) according to the manufacturer's instructions. Viability was calculated by normalizing ATP levels to spheroids treated with normal full media. […]
Tumor spheroids generated from shEcad, shMerlin and shLats1/2 cells were treated with 15 μM erastin with or without 2 μM Fer-1 for 30 h, and dead cells were stained green by SYTOX Green. Cell viability within the tumor spheroids was measured by determining ATP levels. […]

[4] = system: HCT116 cells; experiment: Ferroptosis in HCT116 cells expressing PAK-CAAX; assay type: cell-based, human
[5] = system: HCT116 cells; experiment: Ferroptosis in confluent HCT116 cells expressing shEcad, shMerlin or shLats1/2; assay type: cell-based, human; details: cystine starvation or RSL3 plus
Method: as §1
The involvement of the Hippo signaling in the regulation of ferroptosis by cell-cell contact was also assessed. Cells depleted of Ecad, Merlin, or Lats were generated using shRNA technology. HCT116 cells were infected by lentiviruses expressing shRNA sequences targeting Ecad (shEcad), Merlin (shMerlin), or Lats1/2 (shLats1/2), as indicated. Knockdown efficiency was confirmed by Western blot (FIG. 2B). […] Cell death was measured at 30 h using SYTOX Green staining followed by flow cytometry. Lipid ROS was measured at 24 hours using C11-BODIPY staining coupled with flow cytometry. […] Cell death was measured at 18 h and lipid ROS was measured at 14 h (FIG. 11A).

[6] = system: MEFs; experiment: Ferroptosis and lipid ROS in MEFs; assay type: cell-based, mouse; details: Ferrostatin-1 2 μM; cystine starvation, erastin or RSL3
Method: as §1
Merlin-regulated ferroptosis in cell density dependent manner was also observed in MEFs, which are not of epithelial origin. Cell death of MEFs with different cell density induced by cystine starvation for 12 h was measured by PI staining (FIG. 15A), and flow cytometry (FIG. 15B). The effect of cystine starvation on lipid ROS production in MEFs cells with different cell density (6 h treatment) is also shown in FIG. 15B. […] As shown in FIGS. 15A-15D, increased cell density mitigated both cell death and lipid ROS generation induced by cystine starvation, erastin and RSL3 in MEFs.
MEFs also regulated the activity of YAP at high density in a Merlin-dependent manner. MEFs seeded at increasing density were probed for YAP localization by Immunofluorescence (FIG. 15E). The effect of Merlin was assessed by infecting MEFs with shMerlin lentivirus and selected with puromycin. […] As shown in FIGS. 15E-15F, with increasing cell confluence, there was an increase of YAP nuclear exclusion in MEFs, which was attenuated by Merlin knockdown.

[7] = system: HCT116-derived xenograft tumors; experiment: shLats1/2 HCT116 subcutaneous xenograft treated with IKE; assay type: in vivo, nude mice
Method: For shLats1/2 s.c. tumor models, female athymic nu/nu mice aged 6 to 8 weeks were injected in the right flank with 2×10^6 shNT HCT116 cells or shLats1/2 HCT116 cells. Tumors were measured with calipers every day. When tumors reached a mean volume of 90 mm^3, mice were randomized into four groups and treated with vehicle (65% D5W (5% dextrose in water), 5% Tween-80, 30% PEG-400) or 50 mg/kg IKE (65% D5W (5% dextrose in water), 5% Tween-80, 30% PEG-400) via IP injection once a day. At the end of the study, mice were euthanized with CO2 and tumors were taken for measurement of weight.
To determine whether Lats1/2, the kinases that directly phosphorylate and inactivate YAP, can have similar effects in vivo as Merlin, subcutaneous xenograft tumors were formed from HCT116 cells harboring hairpins targeting Lats1/2. In particular, HCT116 cells containing non-targeting hairpins or hairpins targeting both Lats1 and 2 were injected subcutaneously into nude mice (n=6 per group). Tumors were grown to a volume of 90 mm^3, at which point they were injected […] with 50 mg/kg imidazole ketone erastin (IKE) once a day for 12 days. Tumor volume was measured daily by caliper. Images of resected tumors and their masses were also quantified (FIGS. 19B-19C). Imidazole ketone erastin (IKE) is an erastin analog that is amenable for in vivo use because of the increased solubility and stability.

[8] = system: malignant mesothelioma; details: clinical trials; cited from earlier work
[9] = system: HCT116 cells; experiment: Sorafenib-induced ferroptosis; assay type: cell-based, human; details: 10 μM sorafenib
Method: (§2) The effect of sorafenib on cell density-dependent ferroptosis was determined. First, HCT116 cells were seeded at a density of 0.5×10^5 cells/3.5 cm2 well (sparse) or 4×10^5 cells/3.5 cm2 well (confluent) and grown for 24 h. Cells were then treated with DMSO, 10 μM sorafenib, or 10 μM sorafenib and 2 μM Fer-1 as indicated. […] Second, ΔEcad or the parental HCT116 cells were seeded at 4×10^5 cells/3.5 cm2 well and grown for 24 h. Cells were then treated with 10 μM sorafenib and 2 μM Fer-1 as indicated. Third, HCT116 shNT or shMerlin cells, MSTO-211H shNT or shMerlin cells, HCT116 cells expressing YAP^S127A or the parental cells, MSTO-211H cells expressing YAP^S127A or the parental cells, and HCT116 shNT or shLats1/2 cells were seeded at high density and treated with 10 μM sorafenib and 2 μM Fer-1 as indicated.

[10] = system: 211H mesothelioma cells; experiment: Sorafenib-induced ferroptosis; assay type: cell-based, human; details: 10 μM sorafenib
Method: as §2

[11] = system: HCT116 cells; experiment: Verteporfin and cystine starvation-induced ferroptosis; assay type: cell-based, human; details: verteporfin 0.5 μM
Method: (§3) To further confirm this conclusion, a pharmacological analysis was performed. As a transcriptional coactivator, YAP regulates the expression of multiple target genes through its interaction with the TEAD family of transcriptional factors. Verteporfin (VP), a pharmacological agent that can inhibit the interaction of YAP with the TEAD family members was used to determine the effect of Merlin on ferroptosis. […] YAP^S127A-expressing cells were also treated with verteporfin (0.5 μM) after 24 h of cystine starvation in shMerlin HCT116 or 211H cells.

[12] = system: 211H cells; experiment: as above; assay type: cell-based, human; details: verteporfin 0.5 μM
Method: as §3

CC(=O)N(O)CCCCCNC(=O)CCC(=O)N(O)CCCCCNC(=O)CCC(=O)N(O)CCCCCN [DFO]
inhibition of RSL3-induced cell death [1]: inhibited | inhibition of cystine starvation-induced cell death [1]: inhibited

CCOC(=O)c1ccc(NC2CCCCC2)c(N)c1 [Fer-1, Ferrostatin-1]
block of RSL3-induced ferroptosis and lipid ROS in shMerlin cells by Fer-1 ([2]; 1 μM RSL3 with 204 Fer-1): blocked | block of lipid ROS production in cystine-deprived shMerlin cells by Fer-1 ([2]; high confluence, 18 h): blocked | block of cystine deprivation-induced ferroptosis in shMerlin cells by Fer-1 ([2]; high confluence, cystine-free 24 h): blocked | block of erastin-induced cell death in spheroids by Fer-1 [3]: blocked cell death | inhibition of RSL3-induced ferroptosis in PAK-CAAX cells by Fer-1 [4]: inhibited | inhibition of cystine deprivation-induced ferroptosis in PAK-CAAX cells by Fer-1 [4]: inhibited | block of cell death by Fer-1, confluent knockdown cells [5]: blocked cell death | block of cell death and lipid ROS in confluent Merlin RNAi MEFs [6]: blocked | inhibition of RSL3-induced cell death [1]: inhibited | inhibition of cystine starvation-induced cell death [1]: inhibited

CC(C)Oc1ccc(C(=O)Cn2ccnc2)cc1-n1c(CN2CCN(C(=O)COc3ccc(Cl)cc3)CC2)nc2ccccc2c1=O [IKE, imidazole ketone erastin]
mass of resected xenograft tumors ([7]; Lats1/2 depleted HCT116 tumors, 50 mg/kg IKE once a day): reduced | xenograft tumor growth (volume) ([7]; shLats1/2 HCT116 tumors, 50 mg/kg IKE once a day for 12 days): grew slowly or receded

CNC(=O)c1cc(Oc2ccc(NC(=O)Nc3ccc(Cl)c(C(F)(F)F)c3)cc2)ccn1 [sorafenib]
clinical outcome in malignant mesothelioma [8]: can stabilize, but not necessarily treat mesothelioma | sorafenib-induced ferroptosis at high cell density after loss of Ecad, Lats1/2, inhibition of Merlin or activation of YAP [9]: sensitize these cells to sorafenib-induced ferroptosis at high cell density | sorafenib-induced ferroptosis, sparse versus confluent cells [9]: could induce cell density-dependent ferroptosis | sorafenib-induced ferroptosis at high cell density after inhibition of Merlin or activation of YAP [10]: sensitize these cells to sorafenib-induced ferroptosis at high cell density

Verteporfin
effect of Merlin knockdown and YAP^S127A overexpression on cystine starvation-induced ferroptosis ([11]; high density): ablated the effect of Merlin knockdown and YAP^S127A overexpression | sensitivity of shMerlin cells to cystine starvation-induced ferroptosis ([11]; 24 h cystine starvation): reduced cells sensitivity to ferroptosis | effect of Merlin knockdown and YAP^S127A overexpression on cystine starvation-induced ferroptosis ([12]; high density): ablated the effect of Merlin knockdown and YAP^S127A overexpression | sensitivity of shMerlin cells to cystine starvation-induced ferroptosis ([12]; 24 h cystine starvation): reduced cells sensitivity to ferroptosis
